Experimental data published in patent publication US5104888A, “Thiazolidine derivatives, their preparation and use” (Sankyo Company, Limited, priority 1985, dated 1992).

Experiments:
Aldose reductase = molecular target: T1, Aldose reductase (Bos taurus, UniProt P16116); experiment: Effect on Aldose Reductase (inhibition of enzyme activity, photometric); type: biochemical; conditions: 1×10^-5 M, aldose reductase partially purified from bovine lenses; read-out: Percent Inhibition of aldose reductase
T1 construct: Aldose reductase was separated and partially purified from bovine lenses; from tissue; host or cells: bovine lens
Protocol: Aldose reductase was separated and partially purified from bovine lenses by the method of Hayman and Kinoshita [J. Biol. Chem., 240, 877 (1965)]. Enzyme activities were photometrically determined by the method of Varma et al. [Biochem, Pharmac., 25, 2505 (1976)].
The inhibition of aldose reductase activity was determined employing each test compound in a concentration of 1×10^-5 M, and the results are as shown in Table 30.
As a control, the known compound, 5-[4-(1-methylcyclohexylmethoxy)benzyl]thiazolidine-2,4-dione ("Cpd. A") was tested by the same method and the result is also shown in Table 30: […]

[1] = test system: male mice of the ddY strain; experiment: Toxicity (acute oral, one-week observation); type: in vivo
Protocol: The test animals used were male mice of the ddY strain. The animals were employed in groups of 3. The animals of each group were administered orally with a single test compound in a dose of 300 mg/kg body weight. The compounds employed were those prepared as described in Examples 3, 4, 5 and 13.

[2] = oral, 300 mg/kg body weight, male ddY mice, groups of 3, 1 week

Row | Structure (SMILES) | inhibition at 10 µM (Aldose reductase) | abnormalities attributable to the test compounds during observation [1, 2] | survival at the end of the 1 week observation period [1, 2] | further results
1 | Cc1c(C)c2c(c(C)c1O)/C(=N/O)CC(C)(COc1ccc(CC3SC(=O)NC3=O)cc1)O2 (stereo not drawn) [Example 13, 5-{4-[6-Hydroxy-4-(E)-hydroxyimino-2,5,7,8-tetramethylchroman-2-ylmethoxy]benzyl}thiazolidine-2,4-dione] | 55.5% |  |  | abnormalities attributable to the test compounds during observation ([1]; mouse, in vivo, po, 300 mg/kg): no abnormalities; survival at the end of the 1 week observation period ([1]; mouse, in vivo, po, 300 mg/kg): All animals were alive
2 | CC(=O)Oc1cc2c(cc1C(C)(C)CC(C)(C)C)OC(C)(COc1ccc(CC3SC(=O)NC3=O)cc1)CC2 (stereo not drawn) [Example 4, 5-[4-(6-Acetoxy-2-methyl-7-(1,1,3,3-tetramethylbutyl)-chroman-2-ylmethoxy)benzyl]thiazolidine-2,4dione] |  | no abnormalities | All animals were alive | 
3 | CCCCCCCCC1(COc2ccc(CC3SC(=O)NC3=O)cc2)CCc2c(C)c(O)c(C)c(C)c2O1 (stereo not drawn) [Example 3, 5-[4-(6-Hydroxy-5,7,8-trimethyl-2-octylchroman-2-yl-methoxy)benzyl]thiazolidine-2,4-dione] |  | no abnormalities | All animals were alive | 
4 | Cc1c(C)c2c(c(C)c1OCC(=O)O)CCC(C)(COc1ccc(CC3SC(=O)NC3=O)cc1)O2 (stereo not drawn) [Example 58, α-{2-[4-(2,4-Dioxothiazolidin-5-ylmethyl)phenoxymethyl]-2,5,7,8-tetramethylchroman-6yloxy}acetic acid] | 51.6% |  |  | 
5 | CC(C)(C)CC(C)(C)c1cc2c(cc1O)CCC(C)(COc1ccc(CC3SC(=O)NC3=O)cc1)O2 (stereo not drawn) [Example 5, 5-{4-[6Hydroxy-2-methyl-7-(1,1,3,3-tetramethylbutyl)-chroman-2-ylmethoxy]benzyl}thiazolidine-2,4-dione] |  | no abnormalities | All animals were alive | 
6 | CC1(COc2ccc(CC3SC(=O)NC3=O)cc2)CCCCC1 (stereo not drawn) [Cpd. A, 5-[4-(1-methylcyclohexylmethoxy)benzyl]thiazolidine-2,4-dione, reference compound] | 16.2% |  |  | 
7 | Cc1c(C)c2c(c(C)c1OCC(=O)O)C(=O)CC(C)(COc1ccc(CC3SC(=O)NC3=O)cc1)O2 (stereo not drawn) [Example 59, α-{2-[4-(2,4-Dioxothiazolidin-5-ylmethyl)-phenoxymethyl]-2,5,7,8-tetramethyl-4-oxochroman-6-yloxy}acetic acid] | 79.5% |  |  | 
